Experimental data taken from the supplement of paper PMC10307832.

Tests used:
Experiment in all cases: relative viability (nuclei count vs DMSO), 5 days (fraction); higher = more cells survive
VX-11e + Foretinib = compound: CC1=CN=C(N=C1C2=CNC(=C2)C(=O)N[C@H](CO)C3=CC(=CC=C3)Cl)NC4=C(C=C(C=C4)F)Cl [VX-11e] + COc1cc2c(Oc3ccc(NC(=O)C4(C(=O)Nc5ccc(F)cc5)CC4)cc3F)ccnc2cc1OCCCN1CCOCC1 [Foretinib] (partner 0.25 µM)
In short: (§1)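 Lung cancer cell lines were pin-tool dosed in 1536-well plates on the day after seeding, with either a lone drug or a fixed anchor-drug dose plus five library-drug doses (not always all listed) in √10 steps. Nuclei were counted on 4× images after 5 days. Relative viability is the ratio of treated-well to vehicle-well nuclei counts, with each value a median of duplicate plates.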

VX-11e + OSI-027 = compound: CC1=CN=C(N=C1C2=CNC(=C2)C(=O)N[C@H](CO)C3=CC(=CC=C3)Cl)NC4=C(C=C(C=C4)F)Cl [VX-11e] + COc1cccc2cc(-c3nc([C@H]4CC[C@H](C(=O)O)CC4)n4ncnc(N)c34)[nH]c12 [OSI-027] (partner 0.5 µM)
In short: as §1

VX-11e + Pemetrexed = compound: CC1=CN=C(N=C1C2=CNC(=C2)C(=O)N[C@H](CO)C3=CC(=CC=C3)Cl)NC4=C(C=C(C=C4)F)Cl [VX-11e] + Nc1nc2[nH]cc(CCc3ccc(C(=O)N[C@@H](CCC(=O)O)C(=O)O)cc3)c2c(=O)[nH]1 [Pemetrexed] (partner 0.2 µM)
In short: as §1

VX-11e + AZD7762 = compound: CC1=CN=C(N=C1C2=CNC(=C2)C(=O)N[C@H](CO)C3=CC(=CC=C3)Cl)NC4=C(C=C(C=C4)F)Cl [VX-11e] + NC(=O)Nc1cc(-c2cccc(F)c2)sc1C(=O)N[C@H]1CCCNC1 [AZD7762] (partner 0.2 µM)
In short: as §1

Cell Line | relative viability (VX-11e + Foretinib; first compound 0.04 µM) | relative viability (VX-11e + Foretinib; first compound 0.1265 µM) | relative viability (VX-11e + Foretinib; first compound 0.4 µM) | relative viability (VX-11e + Foretinib; first compound 1.265 µM) | relative viability (VX-11e + Foretinib; first compound 4 µM) | relative viability (VX-11e + OSI-027; first compound 0.04 µM) | relative viability (VX-11e + OSI-027; first compound 0.1265 µM) | relative viability (VX-11e + OSI-027; first compound 0.4 µM) | relative viability (VX-11e + OSI-027; first compound 1.265 µM) | relative viability (VX-11e + OSI-027; first compound 4 µM) | relative viability (VX-11e + Pemetrexed; first compound 0.04 µM) | relative viability (VX-11e + Pemetrexed; first compound 0.1265 µM) | relative viability (VX-11e + Pemetrexed; first compound 0.4 µM) | relative viability (VX-11e + Pemetrexed; first compound 1.265 µM) | relative viability (VX-11e + Pemetrexed; first compound 4 µM) | relative viability (VX-11e + AZD7762; first compound 0.04 µM) | relative viability (VX-11e + AZD7762; first compound 0.1265 µM) | relative viability (VX-11e + AZD7762; first compound 1.265 µM) | relative viability (VX-11e + AZD7762; first compound 4 µM) | relative viability (VX-11e + AZD7762; first compound 0.4 µM)
COR-L23 | 1.1 | 0.939 | 0.964 | 0.749 | 0.373 | 0.733 | 0.591 | 0.579 | 0.347 | 0.185 | 0.236 | 0.196 | 0.213 | 0.217 | 0.179 | – | – | – | – | –
NCI-H1395 | 1.05 | 0.898 | 0.931 | 1 | 0.666 | 0.572 | 0.539 | 0.57 | 0.621 | 0.447 | 0.744 | 0.864 | – | 0.96 | 0.533 | 0.377 | 0.394 | 0.385 | 0.365 | –
RERF-LC-KJ | 1.01 | 0.886 | 0.901 | 0.856 | 0.813 | 0.442 | 0.474 | 0.528 | 0.504 | 0.327 | 0.522 | 0.468 | 0.42 | 0.442 | 0.417 | 0.572 | 0.876 | 0.903 | 0.839 | 0.498
NCI-H1993 | 0.786 | 0.818 | 0.857 | 0.734 | 0.667 | 0.556 | 0.538 | 0.557 | 0.605 | 0.677 | – | 0.537 | 0.457 | 0.58 | 0.521 | – | 0.884 | 0.453 | 0.48 | 0.687
NCI-H2087 | 1.14 | 1.06 | – | 0.81 | 0.454 | 0.357 | 0.448 | – | 0.319 | 0.145 | 0.691 | 0.613 | – | 0.64 | 0.544 | 1.51 | 1.37 | 1.24 | 0.583 | –
NCI-H520 | 0.746 | 0.715 | 0.69 | 0.919 | 0.569 | 0.247 | 0.25 | 0.203 | 0.217 | 0.313 | 0.752 | 0.738 | 0.716 | 0.65 | 0.478 | – | – | – | – | –
NCI-H1648 | – | – | – | – | – | 0.273 | 0.238 | 0.29 | 0.245 | 0.241 | – | 0.891 | 0.866 | 0.596 | 0.674 | – | 0.639 | 0.703 | 0.733 | 0.641
NCI-H23 | 0.896 | 0.984 | – | 0.767 | 0.472 | 0.368 | 0.411 | – | 0.271 | 0.173 | 0.517 | 0.583 | 0.214 | 0.312 | 0.222 | 0.208 | 0.231 | 0.176 | 0.119 | 0.167
LXF-289 | 1 | 0.877 | 0.88 | 0.85 | 0.637 | 0.686 | 0.58 | 0.174 | 0.517 | 0.358 | 0.974 | 0.911 | – | 0.803 | 0.706 | 1.15 | 1.12 | 0.805 | 0.686 | –
